Reference: PubChem BioAssay AID1963424 (Molecular Pharmacology Branch, DTP, NCI, 2024)

Tested on: 327498-153-R-J2-PDC complex spheroid growth, % test/control
Assay: Anticancer human tumor 327498-153-R-J2-PDC patient-derived uterine carcinosarcoma cell line growth inhibition [Asc]
Conditions: for IC50: curve of first compound; for viability, T/C: stronger effect = lower value
In short: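 Concentration series start at each agent's clinical Cmax, or at 10 microM when none is established, and drop in half-log steps; agents are applied alone or together to complex spheroids built with HUVEC and hMSC.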
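Further: spheroids exposed to compound for 7 days after 3 days of growth.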
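Wherever viability, T/C is given: 100% = DMSO vehicle control wells.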

C=CC(=O)N1CCN(c2nc(=O)n(-c3c(C)ccnc3C(C)C)c3nc(-c4c(O)cccc4F)c(F)cc23)C(C)C1 (stereo not given) + CNC(C)C(=O)NC1CN(S(=O)(=O)c2cccc(S(=O)(=O)N3CCC4CCC(C(=O)NC(c5ccccc5)c5ccccc5)N4C(=O)C(NC(=O)C(C)NC)C3)c2)CCC2CCC(C(=O)NC(c3ccccc3)c3ccccc3)N2C1=O
IC50 (second compound 0.01 µM): > 10 µM
IC50 (second compound 0.0316 µM): > 10 µM
IC50 (second compound 0.1 µM): > 10 µM
IC50 (second compound 0.316 µM): > 10 µM
IC50 (second compound 1 µM): > 10 µM
viability, T/C (second compound 0.01 µM, first compound 0.0316 µM): 84.2%
viability, T/C (second compound 0.01 µM, first compound 0.1 µM): 96%
viability, T/C (second compound 0.01 µM, first compound 0.316 µM): 75%
viability, T/C (second compound 0.01 µM, first compound 1 µM): 74.6%
viability, T/C (second compound 0.01 µM, first compound 3.16 µM): 77.8%
viability, T/C (second compound 0.01 µM, first compound 10 µM): 64.6%
viability, T/C (second compound 0.0316 µM, first compound 0.0316 µM): 83.5%
viability, T/C (second compound 0.0316 µM, first compound 0.1 µM): 77.9%
viability, T/C (second compound 0.0316 µM, first compound 0.316 µM): 70.5%
viability, T/C (second compound 0.0316 µM, first compound 1 µM): 67%
viability, T/C (second compound 0.0316 µM, first compound 3.16 µM): 72.2%
viability, T/C (second compound 0.0316 µM, first compound 10 µM): 62.9%
viability, T/C (second compound 0.1 µM, first compound 0.0316 µM): 86%
viability, T/C (second compound 0.1 µM, first compound 0.1 µM): 79.4%
viability, T/C (second compound 0.1 µM, first compound 0.316 µM): 84.5%
viability, T/C (second compound 0.1 µM, first compound 1 µM): 77.6%
viability, T/C (second compound 0.1 µM, first compound 3.16 µM): 70.4%
viability, T/C (second compound 0.1 µM, first compound 10 µM): 67.6%
viability, T/C (second compound 0.316 µM, first compound 0.0316 µM): 89.4%
viability, T/C (second compound 0.316 µM, first compound 0.1 µM): 83.3%
viability, T/C (second compound 0.316 µM, first compound 0.316 µM): 80.7%
viability, T/C (second compound 0.316 µM, first compound 1 µM): 73.8%
viability, T/C (second compound 0.316 µM, first compound 3.16 µM): 77.2%
viability, T/C (second compound 0.316 µM, first compound 10 µM): 75.5%
viability, T/C (second compound 1 µM, first compound 0.0316 µM): 90.6%
viability, T/C (second compound 1 µM, first compound 0.1 µM): 78.8%
viability, T/C (second compound 1 µM, first compound 0.316 µM): 85.4%
viability, T/C (second compound 1 µM, first compound 1 µM): 77%
viability, T/C (second compound 1 µM, first compound 3.16 µM): 72.2%
viability, T/C (second compound 1 µM, first compound 10 µM): 69.7%
